The values that follow come from US6117841A, “Substituted peptidylamine calcium channel blockers” (Warner-Lambert Company, priority 1999, dated 2000).

The target of this experiment is T1, N-type Ca^2+ Channel (Homo sapiens, UniProt Q00975).
T1 construct: host or cells: IMR-32 cells differentiated with dibutyryl cAMP and bromodeoxyuridine
The experiment can be described thus: Measurement of N-type Ca2+ channel blocking potencies in IMR-32 cells using the fluorescent Ca2+ indicator Indo-1. Type of experiment: cell-based. The essentials: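 IMR-32 cells were differentiated 7–13 days (1 mM dibutyryl cAMP, 2.5 µM BrdU) and Indo-1-loaded. They were preincubated 10 min at 30 °C with compound and 5 µM nitrendipine in HEPES/Tris pH 7.4 HBSS with 0.5% BSA, then KCl/CaCl2-depolarized. The peak-minus-basal 400/490 nm emission ratio gave IC50 by four-parameter logistic fit.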

Setting [1] is: IMR-32 cells, K+ depolarization, 5 μM nitrendipine to block L-type channels, read-out: IMR 32 IC50.
[2] abbreviates: IMR-32 cells, 5 μM nitrendipine, Examples 116-140, read-out: IMR 32% of Blockade @.

Like-named read-outs stand apart in the source and are kept apart here.

T1 sequence (Q00975 whole entry): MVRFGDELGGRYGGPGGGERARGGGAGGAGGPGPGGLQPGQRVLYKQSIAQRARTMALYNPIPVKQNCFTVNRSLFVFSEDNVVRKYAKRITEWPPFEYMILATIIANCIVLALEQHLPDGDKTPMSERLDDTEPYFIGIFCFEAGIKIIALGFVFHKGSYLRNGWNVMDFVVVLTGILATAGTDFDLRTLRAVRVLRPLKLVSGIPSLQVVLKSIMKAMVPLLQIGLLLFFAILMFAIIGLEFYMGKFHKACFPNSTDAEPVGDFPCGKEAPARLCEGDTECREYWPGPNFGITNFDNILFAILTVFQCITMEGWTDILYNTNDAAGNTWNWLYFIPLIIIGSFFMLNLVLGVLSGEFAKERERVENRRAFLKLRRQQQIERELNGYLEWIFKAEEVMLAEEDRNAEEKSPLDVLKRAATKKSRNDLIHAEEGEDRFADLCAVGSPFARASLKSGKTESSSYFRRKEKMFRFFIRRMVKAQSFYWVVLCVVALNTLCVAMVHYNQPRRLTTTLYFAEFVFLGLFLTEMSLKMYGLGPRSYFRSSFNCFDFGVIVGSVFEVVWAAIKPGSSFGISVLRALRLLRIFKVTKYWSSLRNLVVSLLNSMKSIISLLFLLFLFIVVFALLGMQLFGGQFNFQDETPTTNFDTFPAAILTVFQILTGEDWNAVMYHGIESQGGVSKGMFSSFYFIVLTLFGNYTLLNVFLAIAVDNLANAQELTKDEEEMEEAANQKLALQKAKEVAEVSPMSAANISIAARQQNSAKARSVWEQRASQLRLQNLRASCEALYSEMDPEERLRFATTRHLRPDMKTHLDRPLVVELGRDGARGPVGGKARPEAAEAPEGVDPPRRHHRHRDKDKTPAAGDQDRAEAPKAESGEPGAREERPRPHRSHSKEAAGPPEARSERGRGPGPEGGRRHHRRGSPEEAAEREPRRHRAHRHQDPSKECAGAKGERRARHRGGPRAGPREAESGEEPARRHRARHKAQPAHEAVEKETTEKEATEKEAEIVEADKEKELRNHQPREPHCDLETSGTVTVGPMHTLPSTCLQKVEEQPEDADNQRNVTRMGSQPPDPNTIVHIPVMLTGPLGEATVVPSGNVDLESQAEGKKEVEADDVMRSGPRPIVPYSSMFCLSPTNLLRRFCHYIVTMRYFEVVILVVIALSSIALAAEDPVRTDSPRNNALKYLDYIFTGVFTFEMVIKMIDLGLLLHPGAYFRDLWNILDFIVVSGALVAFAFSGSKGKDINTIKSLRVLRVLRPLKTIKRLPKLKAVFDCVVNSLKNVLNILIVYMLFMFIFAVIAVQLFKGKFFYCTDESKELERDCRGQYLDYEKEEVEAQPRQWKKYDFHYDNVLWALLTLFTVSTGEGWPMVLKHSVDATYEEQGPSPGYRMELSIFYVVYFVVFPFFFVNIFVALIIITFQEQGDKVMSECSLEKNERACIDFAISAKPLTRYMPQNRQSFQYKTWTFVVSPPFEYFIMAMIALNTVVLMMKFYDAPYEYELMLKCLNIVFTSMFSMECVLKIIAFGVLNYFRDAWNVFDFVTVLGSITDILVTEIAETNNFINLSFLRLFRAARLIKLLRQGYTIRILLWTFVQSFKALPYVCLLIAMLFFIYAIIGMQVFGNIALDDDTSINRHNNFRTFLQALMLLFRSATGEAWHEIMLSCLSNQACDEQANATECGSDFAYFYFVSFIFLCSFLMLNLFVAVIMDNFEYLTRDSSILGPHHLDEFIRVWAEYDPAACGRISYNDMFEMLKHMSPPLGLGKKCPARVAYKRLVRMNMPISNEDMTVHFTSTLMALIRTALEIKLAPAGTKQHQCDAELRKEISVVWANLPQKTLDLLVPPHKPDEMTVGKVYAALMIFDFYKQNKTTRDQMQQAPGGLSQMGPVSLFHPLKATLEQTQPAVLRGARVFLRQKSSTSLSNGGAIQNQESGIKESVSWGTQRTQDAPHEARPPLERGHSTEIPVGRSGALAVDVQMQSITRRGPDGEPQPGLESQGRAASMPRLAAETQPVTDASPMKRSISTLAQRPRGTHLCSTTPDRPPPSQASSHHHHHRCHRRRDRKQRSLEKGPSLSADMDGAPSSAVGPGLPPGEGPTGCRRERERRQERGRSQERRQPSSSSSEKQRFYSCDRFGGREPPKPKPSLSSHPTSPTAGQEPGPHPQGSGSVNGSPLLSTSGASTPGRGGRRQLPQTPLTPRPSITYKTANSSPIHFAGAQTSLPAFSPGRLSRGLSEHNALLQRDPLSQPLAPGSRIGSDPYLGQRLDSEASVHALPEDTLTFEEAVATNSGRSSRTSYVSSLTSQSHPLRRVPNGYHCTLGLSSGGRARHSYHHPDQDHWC
T1 sequence (P54284 whole entry partner): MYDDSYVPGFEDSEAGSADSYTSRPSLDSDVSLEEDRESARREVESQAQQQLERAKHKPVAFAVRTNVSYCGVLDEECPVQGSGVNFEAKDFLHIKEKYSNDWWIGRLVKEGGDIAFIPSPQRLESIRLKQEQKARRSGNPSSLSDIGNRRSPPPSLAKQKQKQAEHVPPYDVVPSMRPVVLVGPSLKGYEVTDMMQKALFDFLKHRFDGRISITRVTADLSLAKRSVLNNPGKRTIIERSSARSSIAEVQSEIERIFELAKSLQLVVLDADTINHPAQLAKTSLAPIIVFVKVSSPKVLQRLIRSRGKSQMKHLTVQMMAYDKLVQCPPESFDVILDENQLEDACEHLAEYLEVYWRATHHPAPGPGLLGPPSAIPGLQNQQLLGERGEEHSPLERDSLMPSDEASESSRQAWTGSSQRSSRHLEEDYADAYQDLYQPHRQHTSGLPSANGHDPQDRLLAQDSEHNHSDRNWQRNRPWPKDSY
T1 sequence (P54289 25-946 partner limits assumed): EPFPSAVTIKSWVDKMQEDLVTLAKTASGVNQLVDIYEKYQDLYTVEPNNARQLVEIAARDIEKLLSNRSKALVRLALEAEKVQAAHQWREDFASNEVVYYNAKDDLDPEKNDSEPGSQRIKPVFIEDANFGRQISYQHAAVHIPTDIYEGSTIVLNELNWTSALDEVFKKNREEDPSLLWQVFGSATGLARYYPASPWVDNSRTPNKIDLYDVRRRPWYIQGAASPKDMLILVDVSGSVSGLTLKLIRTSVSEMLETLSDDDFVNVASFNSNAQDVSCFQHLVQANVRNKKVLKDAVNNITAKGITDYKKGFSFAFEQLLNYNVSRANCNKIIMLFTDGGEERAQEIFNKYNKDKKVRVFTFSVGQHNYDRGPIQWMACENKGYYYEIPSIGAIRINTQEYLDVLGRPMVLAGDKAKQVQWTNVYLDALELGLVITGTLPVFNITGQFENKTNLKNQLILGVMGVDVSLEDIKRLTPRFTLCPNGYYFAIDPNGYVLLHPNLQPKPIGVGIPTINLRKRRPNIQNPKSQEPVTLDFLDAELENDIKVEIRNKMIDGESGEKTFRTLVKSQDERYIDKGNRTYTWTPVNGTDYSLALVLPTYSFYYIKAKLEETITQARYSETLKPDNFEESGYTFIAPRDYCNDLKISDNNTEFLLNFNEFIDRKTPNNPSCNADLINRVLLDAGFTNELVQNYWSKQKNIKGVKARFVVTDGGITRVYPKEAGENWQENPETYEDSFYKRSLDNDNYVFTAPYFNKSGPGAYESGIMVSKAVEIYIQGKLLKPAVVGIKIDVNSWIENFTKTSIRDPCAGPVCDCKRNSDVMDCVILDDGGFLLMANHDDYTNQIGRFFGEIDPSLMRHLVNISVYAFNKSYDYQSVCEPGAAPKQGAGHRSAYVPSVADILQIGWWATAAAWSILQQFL
T1 sequence (P54289 947-1103 partner limits assumed): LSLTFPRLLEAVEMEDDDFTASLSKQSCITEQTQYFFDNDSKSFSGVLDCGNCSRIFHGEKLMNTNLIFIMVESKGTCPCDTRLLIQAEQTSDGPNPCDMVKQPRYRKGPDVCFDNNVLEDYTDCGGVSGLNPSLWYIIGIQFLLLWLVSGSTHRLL

`CC(C)C[C@@H](C(=O)N[C@@H](Cc1ccc(OCc2ccccc2)cc1)C(=O)NC(C)(C)C)N1CCCCC1` (relative stereo) [Example 99, [S-(R*,R*)]-4-Methyl-2-piperidin-1-yl-pentanoic acid [2-(4-benzyloxy-phenyl)-1-tert-butylcarbamoyl-ethyl]-amide]: the IC50 under setting [1] was 1.4 µM.

Consider `CCN[C@@H](CC(C)C)C(=O)N[C@@H](Cc1ccc(OCc2ccccc2)cc1)C(=O)NC(C)(C)C` (relative stereo) [Example 100, [S-(R*,R*)]-2-Ethylamino-4-methyl-pentanoic acid [2-(4-benzyloxy-phenyl)-1-tert-butylcarbamoyl-ethyl]-amide], for which the IC50 under setting [1] was found to be 2 µM.

With `CC(C)C[C@@H](C(=O)N[C@@H](Cc1ccc(OCc2ccccc2)cc1)C(=O)NC(C)(C)C)N(C)Cc1cccnc1` (relative stereo) [Example 101, [S-(R*,R*)]-4-Methyl-2-(methyl-pyridin-3-ylmethyl-amino)-pentanoic acid [2-(4-benzyloxy-phenyl)-1-tert-butylcarbamoyl-ethyl]-amide], the “IMR 32 % of Blockade @ 1 μM” value (1 μM, IMR-32 cells, 5 μM nitrendipine) amounted to 26%.

Take `CC(C)CCN[C@@H](CC(C)C)C(=O)N[C@@H](Cc1ccc(OCc2ccccc2)cc1)C(=O)NC(C)(C)C` (relative stereo) [Example 105, [S-(R*,R*)]-4-Methyl-2-(3-methyl-butylamino)-pentanoic acid [2-(4-benzyloxy-phenyl)-1-tert-butylcarbamoyl-ethyl]-amide]: the IC50 under setting [1] came to 0.24 µM.

As to `CC(C)CCN(C)[C@@H](CC(C)C)C(=O)N[C@@H](Cc1ccc(OCc2ccccc2)cc1)C(=O)NC(C)(C)CO` (relative stereo) [Example 116, [S-(R*,R*)]4-Methyl-2-[methyl-(3-methylbutyl)-amino]-pentanoic acid [2-(4-benzyloxy-phenyl)-1-(2-hydroxy-1,1-dimethyl-ethylcarbamoyl)-ethyl]-amide], the IC50 under setting [2] amounted to 1.4 µM.

For the molecule `CC(C)CCN(C)[C@@H](CC(C)C)C(=O)N[C@@H](Cc1ccc(OCc2ccccc2)cc1)C(=O)NCCN1CCCCC1` (relative stereo) [Example 117, [S-(R*,R*)]-4-Methyl-2-[methyl-(3-methylbutyl)-amino]-pentanoic acid [2-(4-benzyloxy-phenyl)-1-(2-piperidin-1-yl-ethylcarbamoyl)-ethyl]-amide], under setting [2], the IC50 stood at 0.64 µM.

On to `CC(C)CCN(C)[C@@H](CC(C)C)C(=O)N[C@@H](Cc1ccc(OCc2ccccc2)cc1)C(=O)NCCCN1CCCC1=O` (relative stereo) [Example 118, [S-(R*,R*)]-4-Methyl-2-[methyl-(3-methyl-butyl)-amino]-pentanoic acid {2-(4-benzyloxy-phenyl)-1-[3-(2-oxo-pyrrolidin-1-yl)-propylcarbamoyl]-ethyl}-amide], for which, under setting [2], the IC50 is 1.9 µM.

Consider `CC(C)C[C@@H](C(=O)N[C@@H](Cc1ccc(OCc2ccccc2)cc1)C(=O)NCCc1ccccn1)N1CCOCC1` (relative stereo) [Example 120, [S-(R*,R*)]-4-Methyl-2-morpholin-4yl-pentanoic acid [2-(4-benzyloxy-phenyl)-1-(2-pyridin-2-yl-ethylcarbamoyl)-ethyl]-amide], for which, under setting [2], the IC50 is 6 µM.

Turning to `CC(C)C[C@@H](C(=O)N[C@@H](Cc1ccc(OCc2ccccc2)cc1)C(=O)NCCN1CCSCC1)N1CCOCC1` (relative stereo) [Example 122, [S-(R*,R*)]-4-Methyl-2-morpholin-4-yl-pentanoic acid [2-(4-benzyloxy-phenyl)-1-(2-thiomorpholin-4-yl-ethylcarbamoyl)-ethyl]-amide], the IC50 under setting [2] was 3.1 µM.

As for `CC(C)C[C@@H](C(=O)N[C@@H](Cc1ccc(OCc2ccccc2)cc1)C(=O)NC(C)(C)CO)N1CCOCC1` (relative stereo) [Example 123, [S-(R*,R*)]-4-Methyl-2-morpholin-4-yl-pentanoic acid [2-(4-benzyloxy-phenyl)-1-(2-hydroxy-1,1-dimethyl-ethylcarbamoyl)-ethyl]-amide], under setting [2], the IC50 was determined as 13 µM.

For the molecule `CCC(CO)(CO)NC(=O)[C@H](Cc1ccc(OCc2ccccc2)cc1)NC(=O)[C@H](CC(C)C)N1CCOCC1` (relative stereo) [Example 124, [S-(R*,R*)]-4-Methyl-2-morpholin-4-yl-pentanoic acid [2-(4-benzyloxy-phenyl)-1-(1,1-bis-hydroxymethyl-propyl-carbamoyl)-ethyl]-amide], the IC50 under setting [2] is 7.2 µM.

On to `CC(C)C[C@@H](C(=O)N[C@@H](Cc1ccc(OCc2ccccc2)cc1)C(=O)NCCN1CCCC1)N1CCOCC1` (relative stereo) [Example 125, [S-(R*,R*)]-4-Methyl-2-morpholin-4-yl-pentanoic acid [2-(4-benzyloxy-phenyl)-1-(2-pyrrolidin-1-yl-ethylcarbamoyl)-ethyl]-amide], for which, under setting [2], the IC50 stood at 9.7 µM.

Turning to `CC(C)C[C@@H](C(=O)N[C@@H](Cc1ccc(OCc2ccccc2)cc1)C(=O)N1CCC(O)CC1)N1CCOCC1` (relative stereo) [Example 126, [S-(R*,R*)]4-Methyl-2-morpholin-4-yl-pentanoic acid [2-(4-benzyloxy-phenyl)-1-(4-hydroxypiperidinylcarbamoyl)-ethyl]-amide], the IC50 under setting [2] was 6.4 µM.

`CC(C)C[C@H](NC1CCOCC1)C(=O)N[C@@H](Cc1ccc(OCc2ccccc2)cc1)C(=O)NCCN1CCOCC1` (relative stereo) [Example 127, [S-(R*,R*)]-4-Methyl-2-(tetrahydropyran-4-yl-amino)-pentanoic acid [2-(4-benzyloxy-phenyl)-1-(2-morpholin4-yl-ethylcarbamoyl)-ethyl]-amide]: the IC50 under setting [2] is 7.5 µM.

Take `CC(C)C[C@H](NC1CCOCC1)C(=O)N[C@@H](Cc1ccc(OCc2ccccc2)cc1)C(=O)NCCCn1ccnc1` (relative stereo) [Example 129, [S-(R*,R*)]-4-Methyl-2-(tetrahydropyran-4-yl-amino)-pentanoic acid [2-(4-benzyloxy-phenyl)-1-(3-imidazol-1-yl-propylcarbamoyl)-ethyl]-amide]: the IC50 under setting [2] worked out at 6.3 µM.

Regarding `CC(C)C[C@@H](C(=O)N[C@@H](Cc1ccc(OCc2ccccc2)cc1)C(=O)NCCN1CCOCC1)N(C)C` (relative stereo) [Example 132, [S-(R*,R*)]-2-Dimethylamino-4-methyl-pentanoic acid [2-(4-benzyloxy-phenyl)-1-(2-morpholin-4-yl-ethylcarbamoyl)-ethyl]-amide], under setting [2], the IC50 was found to be 12 µM.

For the molecule `CC(C)C[C@@H](C(=O)N[C@@H](Cc1ccc(OCc2ccccc2)cc1)C(=O)NCCc1ccccn1)N(C)C` (relative stereo) [Example 133, [S-(R*,R*)]-2-Dimethylamino-4-methyl-pentanoic acid [2-(4-benzyloxy-phenyl)-1-(2-(2-aminoethyl)pyridinecarbamoyl)-ethyl]-amide], the IC50 (read-out: IMR 32% of Blockade @) turned out to be 5.9 µM.

On to `CC(C)C[C@@H](C(=O)N[C@@H](Cc1ccc(OCc2ccccc2)cc1)C(=O)NCCCn1ccnc1)N(C)C` (relative stereo) [Example 134, [S-(R*,R*)]-2-Dimethylamino-4-methyl-pentanoic acid [2-(4-benzyloxy-phenyl)-1-(3-imidazol-1-yl-propylcarbamoyl)-ethyl]-amide], for which the IC50 under setting [2] was determined as 1.6 µM.

In the case of `CC(C)C[C@@H](C(=O)N[C@@H](Cc1ccc(OCc2ccccc2)cc1)C(=O)N1CCSCC1)N(C)C` (relative stereo) [Example 135, [S-(R*,R*)]-2-Dimethylamino-4-methyl-pentanoic acid [2-(4-benzyloxy-phenyl)-1-(thiomorpholinecarbamoyl)-ethyl]-amide], under setting [2], the IC50 worked out at 1.4 µM.
